# Patent US12060388B2, “Cell-penetrating peptides and methods of use thereof” (priority 2018, dated 2024)
# Key:
# Format in all cases: cell-based
# [1] = system: HPV16 PsV; assay: HPV16 PsV internalization in peptide-treated HeLa-S3 cells, anti-L1 immunofluorescence; conditions: 14 μM, MOI of 50, 8 or 16 h at 37° C.
# Protocol: HeLa-S3 cells were incubated with 14 μM P16/16 or vehicle for one hour, followed by infection with HPV16 PsV at MOI of 50 at 4° C. for 2 h. Cells were washed with PBS to remove loosely-bound PsV and then shifted to 37° C. to allow virus internalization. After 8 or 16 h at 37° C., samples were fixed with 4% paraformaldehyde, permeabilized with 1% saponin, and stained with anti-L1 antibody. Cells were also stained with DAPI to visualize nuclei and examined by a Leica SP5 confocal microscope.
# For the internalization experiments, 5×10^4 HeLa-S3 cells were grown on glass coverslips for 16 hours. After one-hour incubation with or without peptides, PsV at MOI of 50 were added and incubated at 4° C. for 2 hours, washed with PBS three times to remove loosely bound PsV, and shifted to 37° C.to initiate infection. As a control, cells were incubated with the solution used to dissolve peptides alone. At the indicated times post-infection, samples were fixed, permeabilized and stained with anti-L1 and AlexaFluor 488 conjugated secondary antibody. Cells were analyzed by a Leica SP5 confocal microscope.
# [2] = system: EEA1 / HPV16 L1; assay: Proximity ligation assay for L1 and EEA1 in peptide-treated infected cells; conditions: 14 μM
# Protocol: HeLa-S3 cells grown on glass coverslips for 16 hours were incubated for one hour with or without 14 μM P16/16, followed by mock-infection or infection with HPV16 PSV at MOI of 200. 8 and 16 h.p.i., cells were processed for PLA with anti-L1 antibody and an antibody recognizing EEA1 (FIG. 20A) or TGN46 (FIG. 20B). PLA was performed as in FIG. 19B. The PLA signal for EEA1/L1 was normalized to that of cells infected with HPV16 PsV in the absence of peptide at 8 h.p.i., while the TGN46/L1 signal was normalized to untreated cells at 16 h.p.i.
# For the proximity ligation assay, after an hour incubation with peptides, HeLa-S3 cells were infected with wild-type PSV at MOI of 200 or mutant PsV containing the same number of reporter plasmid genomes. Infected cells were fixed at 8 or 16 h.p.i., permeabilized, and incubated with 1:100 dilutions of anti-L1 antibody and an antibody recognizing EEA1, TGN46, or VPS35. […] The nuclei were stained by using Abcam fluorescence mounting medium with DAPI and images were acquired by a Leica SP5 inverted fluorescence microscope. […] The images were processed by Fiji and quantitatively analyzed by BlobFinder software to measure total fluorescence intensity in each sample. The average fluorescence intensity per cell in each sample was normalized to the control sample as indicated in each experiment. […]
# [3] = system: HPV16 pseudovirus (PsV); assay: Peptide inhibition of HPV16 PsV infection of HeLa-S3 cells, flow cytometry for HcRed
# Text: FIG. 18A (top) depicts sequences of L2 peptides. […] Amino acid substitutions in the CPP or RBS mutant peptides are shown in orange and blue, respectively. Bottom: RBS and flanking sequences of indicated HPV L2 proteins or DMT1-II. FIG. 18B depicts an inhibitory dose-response curve for P16/16 peptide. 5×10^4 HeLa-S3 in 24-well plates were pretreated with various concentrations of P16/16 for one hour prior to infection with HPV pseudovirus (PsV) at multiplicity of infection (MOI) of 1. Peptide was left in the medium for the duration of the experiment. Cells were assessed by flow cytometry to determine the fraction of cells expressing reporter protein HcRed at 48 hours post-infection (h.p.i.). […] FIG. 18C depicts 5×10^4 HeLa-S3 in 24-well plates were pretreated with 14 μM of the indicated peptide for one hour, followed by infection with HPV PSV at MOI of one. Peptides were left in the medium for the duration of the experiment. As a control, cells were incubated with the solution used to dissolve peptide. Forty-eight h.p.i., cells were assessed by flow cytometry to determine fraction of cells expressing reporter protein HcRed. […] For the comparison of P16/16 to P16/6A, P16/3R, and PDM/16 for HPV16 PsV, **, p<0.01; ***, p<0.001. […] FIG. 18D depicts inhibition of HPV infection of HaCaT cells. HaCaT keratinocytes were infected at MOI of 1 with HPV16 PsV in the presence and absence of 14 μM P16/16, and infectivity was assessed 48 h.p.i. by flow cytometry for HcRed fluorescence. FIG. 18E depicts inhibition of authentic HPV16. HeLa cells were infected with HPV16 harvested from organotypic cultures of human keratinocytes or with HPV16 PsV in the presence (grey bars) or absence (black bars) of P16/16. Successful infection by HPV16 and HPV16 PsV was assessed by quantitative reverse transcription-PCR (qRT-PCR) for expression of HPV early region and HcRed mRNA, respectively, and normalized to infection by the cognate virus in the absence of peptide. Background signal determined with non-cognate primers was <0.01%.
# To assess the effect of peptides on viral infection, 5×104 HeLa-S3 in 24-well plates were pretreated with peptides for one hour, followed by infection with wild-type HPV PsV at 37° C. at MOI of ˜1 or with mutant PsV containing an equivalent number of encapsidated reporter plasmids. Peptides were left in the medium for the duration of the experiment unless otherwise indicated. As a control, cells were incubated with the solution used to dissolve peptide. Cells were assessed by flow cytometry on a Stratedigm-13 flow cytometer to determine reporter protein expression at 48 h.p.i. unless otherwise indicated. In some experiments, peptides were added at various times after infection and were left in the medium for the duration of the experiment.
# [4] = system: HeLa-S3 cells; assay: CellTiter-Fluor viability assay; conditions: 14 μM for 4 or 24 hours
# Protocol: HeLa-S3 cells were incubated with medium, medium plus vehicle, or medium plus 14 μM P16/16 for 4 or 24 hours. Viability assay was performed by using the CellTiter-Fluor viability assay protocol (Promega, Cat #G6082). Briefly, an equal volume of CellTiter-Fluor reagent was added to each well without removing the medium, mixed briefly, then incubated for one hour at 37° C. Fluorescence was measured by using a GloMax Explorer Multimode Microplate Reader (380-400 nmEx/505 nmEm). n.s., not significant.
# [5] = system: HPV5 PsV; assay: Peptide inhibition of HPV5 PsV infection of HeLa-S3 cells, flow cytometry for HcRed; conditions: 14 μM peptide, MOI of one, 48 h.p.i.
# Text: FIG. 18A (top) depicts sequences of L2 peptides. […] Amino acid substitutions in the CPP or RBS mutant peptides are shown in orange and blue, respectively. Bottom: RBS and flanking sequences of indicated HPV L2 proteins or DMT1-II. FIG. 18B depicts an inhibitory dose-response curve for P16/16 peptide. 5×10^4 HeLa-S3 in 24-well plates were pretreated with various concentrations of P16/16 for one hour prior to infection with HPV pseudovirus (PsV) at multiplicity of infection (MOI) of 1. Peptide was left in the medium for the duration of the experiment. Cells were assessed by flow cytometry to determine the fraction of cells expressing reporter protein HcRed at 48 hours post-infection (h.p.i.). […] Forty-eight h.p.i., cells were assessed by flow cytometry to determine fraction of cells expressing reporter protein HcRed. […] HaCaT keratinocytes were infected at MOI of 1 with HPV16 PsV in the presence and absence of 14 μM P16/16, and infectivity was assessed 48 h.p.i. by flow cytometry for HcRed fluorescence. […] Successful infection by HPV16 and HPV16 PsV was assessed by quantitative reverse transcription-PCR (qRT-PCR) for expression of HPV early region and HcRed mRNA, respectively, and normalized to infection by the cognate virus in the absence of peptide. Background signal determined with non-cognate primers was <0.01%. […]
structure (smiles),measurement,setting,value
CC[C@H](C)[C@H](NC(=O)[C@@H](NC(=O)[C@H](Cc1ccc(O)cc1)NC(=O)[C@H](CCC(N)=O)NC(=O)[C@@H]1CCCN1C(=O)[C@H](CO)NC(=O)[C@@H](N)CS)[C@@H](C)O)C(=O)N[C@H](C(=O)N[C@@H](C)C(=O)N[C@@H](CC(=O)O)C(=O)N[C@@H](C)C(=O)NCC(=O)N[C@@H](CC(=O)O)C(=O)N[C@@H](Cc1ccccc1)C(=O)N[C@@H](Cc1ccc(O)cc1)C(=O)N[C@@H](CC(C)C)C(=O)N[C@@H](Cc1c[nH]cn1)C(=O)N1CCC[C@H]1C(=O)N[C@@H](CO)C(=O)N[C@@H](Cc1ccc(O)cc1)C(=O)N[C@@H](Cc1ccc(O)cc1)C(=O)N[C@@H](CCSC)C(=O)N[C@@H](CC(C)C)C(=O)N[C@@H](CCCNC(=N)N)C(=O)N[C@@H](CCCCN)C(=O)N[C@@H](CCCNC(=N)N)C(=O)N[C@@H](CCCNC(=N)N)C(=O)N[C@@H](CCCCN)C(=O)N[C@@H](CCCNC(=N)N)C(=O)O)[C@@H](C)CC [P16/16],virus internalization,[1],did not inhibit virus internalization
same,EEA1/L1 PLA at 8 h.p.i.,"[2]; MOI of 200, 8 h.p.i.",arrival of HPV at the endosome regardless of the presence of the peptide
same,EEA1/L1 PLA at 16 h.p.i.,"[2]; MOI of 200, 16 h.p.i.",striking accumulation of the virus in the endosome
same,time of peptide addition for effective inhibition,[3]; 14 μM peptide added at time of infection or at indicated h.p.i.,needed to be added during the first few hours of infection
same,persistence of inhibition,"[3]; 14 μM peptide left in medium, 48, 72, or 96 h.p.i.",at least 96 h.p.i.
same,inhibition of HPV16 PsV infection,"[3]; 14 μM peptide, MOI of 1, 48 h.p.i.",statistically significant (p<0.01) inhibition
same,infection after removal of peptide,[3]; peptide removed from the medium after 24 hours,infection was not restored over the next three days
same,"reduction in infection, dose-response","[3]; various concentrations of peptide, MOI of 1, 48 h.p.i.",dose-dependent reduction in infection
same,toxicity (morphology and cell viability assay),[4],no apparent toxicity
same,inhibition of HPV5 PsV infection,[5],potently inhibited infection
